Reference: patent US9931327B2, “Derivatives of 1-phenyl-2-pyridinyl alkyl alcohols as phosphodiesterase inhibitors” (Chiesi Farmaceutici S.p.A., priority 2011, dated 2018)
Counter-ions that a name gives are not always drawn.

System: LPS-induced TNF-α release in peripheral blood mononuclear cells (PBMCs)
Assay: In vitro determination of PDE4 inhibitory activity in the PBMCs assay (LPS-induced TNF-α release)
Type: cell-based, human
Details: PBMC; human PBMCs, LPS 3 ng/ml, 18 hours, TNF-α by ELISA; read-out: PDE4 inhibition (IC50, 50% inhibition of LPS-induced TNF-α release)
Description: The assay, which is based on the known inhibitory activity exerted by PDE4 inhibitors on the lipopolyshaccarides (LPS)-induced tumour necrosis factor-alpha (TNF-α release in peripheral blood mononuclear cells (PBMCs), was performed according to a method previously described (Hatzelmann A et al., J. Pharmacol. Exp. Ther., 2001; 297:267-279; and Draheim R et al., J. Pharmacol. Exp. Ther., 2004; 308:555-563, which are incorporated herein by reference in their entireties). Cryopreserved human PBMCs, (100 l/well) were incubated in 96-well plates (10^5 cells/well), for 30 minutes, in the presence or absence (50 microl) of the test compounds whose concentrations ranged from 10^−12 M to 10^−6 M or from […] to 10^−7 M. Subsequently, LPS (3 ng/ml) was added.
After 18 hours of incubation at 37° C. in a humidified incubator under an atmosphere of 95% air and 5% CO2, culture medium was collected and TNF-α measured by ELISA. The results of the tested compounds, representatives of the invention, expressed as mean±95% confidence limits of the molar concentration of the test compound producing 50% inhibition of LPS-induced TNF-α release (IC50) are shown in the following Table: […]

SMILES	IC50
O=C(O)c1cccc(S(=O)(=O)N2CCSC2C(=O)O[C@@H](Cc2c(Cl)c[n+]([O-])cc2Cl)c2ccc(OC(F)F)c(OCC3CC3)c2)c1 (single isomer, unassigned) [Compound 75, 4-((S)-2-((S)-3-(3-carboxyphenylsulfonyl)thiazolidine-2-carbonyloxy)-2-(3-(cyclopropylmethoxy)-4-(difluoromethoxy)phenyl)ethyl)-3,5-dichloropyridine 1-oxide or 4-((S)-2-((R)-3-(3-carboxyphenylsulfonyl)thiazolidine-2-carbonyloxy)-2-(3-(cyclopropylmethoxy)-4-(difluoromethoxy)phenyl)ethyl)-3,5-dichloropyridine 1-oxide]	0.1 to 1 nM
O=C(OCCN1CCOCC1)c1cccc(S(=O)(=O)N2CCSC2C(=O)O[C@@H](Cc2c(Cl)c[n+]([O-])cc2Cl)c2ccc(OC(F)F)c(OCC3CC3)c2)c1 (single isomer, unassigned) [Compound 133, 3,5-dichloro-4-((S)-2-(3-(cyclopropylmethoxy)-4-(difluoromethoxy)phenyl)-2-((S)-3-(3-((2-morpholinoethoxy)carbonyl)phenylsulfonyl)thiazolidine-2-carbonyloxy)ethyl)pyridine 1-oxide or 3,5-dichloro-4-((S)-2-(3-(cyclopropylmethoxy)-4-(difluoromethoxy)phenyl)-2-((R)-3-(3-((2-morpholinoethoxy)carbonyl)phenylsulfonyl)thiazolidine-2-carbonyloxy)ethyl)pyridine 1-oxide]	< 0.1 nM
CN(C)S(=O)(=O)c1cccc(S(=O)(=O)N2CCCC2C(=O)O[C@@H](Cc2c(Cl)c[n+]([O-])cc2Cl)c2ccc(OC(F)F)c(OCC3CC3)c2)c1 (stereo in doubt) [Compound 238, 3,5-dichloro-4-((S)-2-(3-(cyclopropylmethoxy)-4-(difluoromethoxy)phenyl)-2-((S)-1-(3-(N,N-dimethylsulfamoyl)phenylsulfonyl)pyrrolidine-2-carbonyloxy)ethyl)pyridine 1-oxide]	0.1 to 1 nM
Cc1noc2ncc(S(=O)(=O)N3CCSC3C(=O)O[C@@H](Cc3c(Cl)c[n+]([O-])cc3Cl)c3ccc(OC(F)F)c(OCC4CC4)c3)cc12 (stereo in doubt) [Compound 239, 3,5-dichloro-4-((S)-2-(3-(cyclopropylmethoxy)-4-(difluoromethoxy)phenyl)-2-((S)-3-(3-methylisoxazolo[5,4-b]pyridin-5-ylsulfonyl)thiazolidine-2-carbonyloxy)ethyl)pyridine 1-oxide]	< 0.1 nM
Cc1nn(C)c2ncc(S(=O)(=O)N3CCSC3C(=O)O[C@@H](Cc3c(Cl)c[n+]([O-])cc3Cl)c3ccc(OC(F)F)c(OCC4CC4)c3)cc12 (stereo in doubt) [Compound 240, 3,5-dichloro-4-((S)-2-(3-(cyclopropylmethoxy)-4-(difluoromethoxy)phenyl)-2-((S)-3-(1,3-dimethyl-1H-pyrazolo[3,4-b]pyridin-5-ylsulfonyl)thiazolidine-2-carbonyloxy)ethyl)pyridine 1-oxide]	< 0.1 nM
COC(=O)c1cc(CN2CCCC2C(=O)O[C@@H](Cc2c(Cl)c[n+]([O-])cc2Cl)c2ccc(OC(F)F)c(OCC3CC3)c2)oc1C (stereo partly drawn) [Compound 15, 3,5-dichloro-4-((2S)-2-(3-(cyclopropylmethoxy)-4-(difluoromethoxy)phenyl)-2-(1-((4-(methoxycarbonyl)-5-methylfuran-2-yl)methyl)pyrrolidine-2-carbonyloxy)ethyl)pyridine 1-oxide]	1 to 10 nM
CS(=O)(=O)Nc1cc(C(=O)N2CCC[C@H]2C(=O)O[C@@H](Cc2c(Cl)c[n+]([O-])cc2Cl)c2ccc(OC(F)F)c(OCC3CC3)c2)ccc1OCC1CC1 [Compound 19, 3,5-dichloro-4-((S)-2-((S)-1-(4-(cyclopropylmethoxy)-3-(methylsulfonamido)benzoyl)pyrrolidine-2-carbonyloxy)-2-(3-(cyclopropylmethoxy)-4-(difluoromethoxy)phenyl)ethyl)pyridine 1-oxide]	1 to 10 nM
NCc1cccc(C(=O)N2CCS[C@H]2C(=O)O[C@@H](Cc2c(Cl)c[n+]([O-])cc2Cl)c2ccc(OC(F)F)c(OCC3CC3)c2)c1 [Compound 21, 4-((S)-2-((S)-3-(3-(aminomethyl)benzoyl)thiazolidine-2-carbonyloxy)-2-(3-(cyclopropylmethoxy)-4-(difluoromethoxy)phenyl)ethyl)-3,5-dichloropyridine 1-oxide]	1 to 10 nM
NCCc1ccc(C(=O)N2CCSC2C(=O)O[C@@H](Cc2c(Cl)c[n+]([O-])cc2Cl)c2ccc(OC(F)F)c(OCC3CC3)c2)cc1 (stereo partly drawn) [Compound 22, 4-((2S)-2-(3-(4-(2-aminoethyl)benzoyl)thiazolidine-2-carbonyloxy)-2-(3-(cyclopropylmethoxy)-4-(difluoromethoxy)phenyl)ethyl)-3,5-dichloropyridine 1-oxide]	0.1 to 1 nM
Nc1ccc(C(=O)N2CCSC2C(=O)O[C@@H](Cc2c(Cl)c[n+]([O-])cc2Cl)c2ccc(OC(F)F)c(OCC3CC3)c2)cc1 (stereo partly drawn) [Compound 26, 4-((2S)-2-(3-(4-aminobenzoyl)thiazolidine-2-carbonyloxy)-2-(3-(cyclopropylmethoxy)-4-(difluoromethoxy)phenyl)ethyl)-3,5-dichloropyridine 1-oxide]	0.1 to 1 nM
COc1ccc(C(=O)N2CCC[C@H]2C(=O)O[C@@H](Cc2c(Cl)c[n+]([O-])cc2Cl)c2ccc(OC(F)F)c(OCC3CC3)c2)cc1OS(C)(=O)=O [Compound 30, 3,5-dichloro-4-((S)-2-(3-(cyclopropylmethoxy)-4-(difluoromethoxy)phenyl)-2-((S)-1-(4-methoxy-3-(methylsulfonyloxy)benzoyl)pyrrolidine-2-carbonyloxy)ethyl)pyridine-1-oxide]	1 to 10 nM
COc1ccc(C(=O)N2CCSC2C(=O)O[C@@H](Cc2c(Cl)c[n+]([O-])cc2Cl)c2ccc(OC(F)F)c(OCC3CC3)c2)cc1S(=O)(=O)N(C)C (stereo partly drawn) [Compound 32, 3,5-dichloro-4-((2S)-2-(3-(cyclopropylmethoxy)-4-(difluoromethoxy)phenyl)-2-(3-(3-(N,N-dimethylsulfamoyl)-4-methoxybenzoyl)thiazolidine-2-carbonyloxy)ethyl)pyridine 1-oxide]	0.1 to 1 nM
CN(C)Cc1cccc(C(=O)N2CCSC2C(=O)O[C@@H](Cc2c(Cl)c[n+]([O-])cc2Cl)c2ccc(OC(F)F)c(OCC3CC3)c2)c1 (stereo partly drawn) [Compound 34, 3,5-dichloro-4-((2S)-2-(3-(cyclopropylmethoxy)-4-(difluoromethoxy)phenyl)-2-(3-(3-((dimethylamino)methyl)benzoyl)thiazolidine-2-carbonyloxy)ethyl)pyridine 1-oxide]	0.1 to 1 nM
O=C(O[C@@H](Cc1c(Cl)c[n+]([O-])cc1Cl)c1ccc(OC(F)F)c(OCC2CC2)c1)C1SCCN1C(=O)c1cnco1 (stereo partly drawn) [Compound 35, 3,5-dichloro-4-((2S)-2-(3-(cyclopropylmethoxy)-4-(difluoromethoxy)phenyl)-2-(3-(oxazole-5-carbonyl)thiazolidine-2-carbonyloxy)ethyl)pyridine 1-oxide]	< 0.1 nM
O=C(O[C@@H](Cc1c(Cl)c[n+]([O-])cc1Cl)c1ccc(OC(F)F)c(OCC2CC2)c1)[C@@H]1SCCN1C(=O)c1ccc(N2CCS(=O)(=O)CC2)cc1 [Compound 36]	0.1 to 1 nM
NC(=O)c1ccc(C(=O)N2CCS[C@H]2C(=O)O[C@@H](Cc2c(Cl)c[n+]([O-])cc2Cl)c2ccc(OC(F)F)c(OCC3CC3)c2)cc1 [Compound 37, 4-((S)-2-((S)-3-(4-carbamoylbenzoyl)thiazolidine-2-carbonyloxy)-2-(3-(cyclopropylmethoxy)-4-(difluoromethoxy)phenyl)ethyl)-3,5-dichloropyridine 1-oxide]	< 0.1 nM
O=C(O[C@@H](Cc1c(Cl)c[n+]([O-])cc1Cl)c1ccc(OC(F)F)c(OCC2CC2)c1)C1SCCN1C(=O)c1cncs1 (stereo partly drawn) [Compound 38, 3,5-dichloro-4-((2S)-2-(3-(cyclopropylmethoxy)-4-(difluoromethoxy)phenyl)-2-(3-(thiazole-5-carbonyl)thiazolidine-2-carbonyloxy)ethyl)pyridine 1-oxide]	< 0.1 nM
O=C(O[C@@H](Cc1c(Cl)c[n+]([O-])cc1Cl)c1ccc(OC(F)F)c(OCC2CC2)c1)[C@@H]1SCCN1C(=O)c1ccc(CN2CCOCC2)cc1 [Compound 39, 3,5-dichloro-4-((S)-2-(3-(cyclopropylmethoxy)-4-(difluoromethoxy)phenyl)-2-((S)-3-(4-(morpholinomethyl)benzoyl)thiazolidine-2-carbonyloxy)ethyl)pyridine 1-oxide]	0.1 to 1 nM

Same assay, conditions: PBMC; human PBMCs, LPS 3 ng/ml, 18 hours; compounds of formula (II); read-out: PDE4 inhibition (IC50, 50% inhibition of LPS-induced TNF-α release)

SMILES	IC50
O=C(O[C@@H](Cc1c(Cl)c[n+]([O-])cc1Cl)c1ccc(OC(F)F)c(OCC2CC2)c1)[C@H]1NCCS1 [Compound 6, 3,5-dichloro-4-((S)-2-(3-(cyclopropylmethoxy)-4-(difluoromethoxy)phenyl)-2-((S)-thiazolidine-2-carbonyloxy)ethyl)pyridine 1-oxide hydrochloride]	0.1 to 1 nM
O=C(OC(Cc1c(Cl)c[n+]([O-])cc1Cl)c1ccc(OC(F)F)c(OCC2CC2)c1)C1CNCCO1 (stereo not shown) [Compound 8]	1 to 10 nM
O=C(O[C@@H](Cc1c(Cl)c[n+]([O-])cc1Cl)c1ccc(OC(F)F)c(OCC2CC2)c1)[C@H]1CCCCN1 [Compound 9]	1 to 10 nM
O=C(O[C@@H](Cc1c(Cl)c[n+]([O-])cc1Cl)c1ccc(OC(F)F)c(OCC2CC2)c1)[C@@H]1CSCN1 [Compound 11]	0.1 to 1 nM
